In article PMC5877539, “Biochemical and MALDI-TOF Mass Spectrometric Characterization of a Novel Native and Recombinant Cystine Knot Miniprotein from Solanum tuberosum subsp. andigenum cv. Churqueña” (International Journal of Molecular Sciences, 2018):
Non-standard residues stand in square brackets, D forms with d. No end group written: not given here. pGlu = O=C1CC[C@@H](C(=O)O)N1

Assays:
[1] = molecular target: porcine carboxypeptidases B (pCPB); experiment: Inhibition kinetic constant (Ki), pCPB, pre-steady-state tight-binding (Morrison) assay; assay type: biochemical; settings: against pCPB
Method: (§1) The inhibitory properties of the purified rchuPCI against bCPA and pCPB were determined and compared with a recombinant version of the canonical PCI. The Ki values were evaluated following a pre-steady-state based protocol, according to the Morrison model for tight-binding inhibitors. […] When compared to the canonical PCI, the Ki values obtained for rchuPCI against bCPA and pCPB were about 2-fold higher than the Ki values obtained for recombinant PCI (rPCI).
(§2) The method for tight binding inhibitors was used for the Ki determination. Inhibitory assays were performed at 25 °C under equilibrium conditions ([E0]/Ki ≤ 10) with a fixed concentration of bCPA or pCPB and substrate (0.1 mM N-(4-methoxyphenylazoformyl)-Phe-OH or 0.1 mM N-(4-methoxyphenylazoformyl)-Arg-OH, respectively) in Tris-HCl buffer (pH 7.5) containing 0.2 M NaCl. Samples were pre-incubated for 15 min at RT before the addition of substrate. Then, the decrease in absorbance was measured at 340 nm in a Victor3 (Perkin Elmer, Boston, MA, USA) plate reader. Ki values were calculated by direct fitting of the fractional activities (vi/v0) to the Morrison equation and assuming a competitive inhibition modality (Equations (3) and (4)). (3) vi/v0=1−([E]T+[I]T+Kiapp)−([E]T+[I]T+Kiapp)^2−4[E]T[I]T/2[E]T (4) Ki=Kiapp/([S0/KM])+1 […]

[2] = molecular target: bovine carboxypeptidases A (bCPA); experiment: Inhibition kinetic constant (Ki), bCPA, pre-steady-state tight-binding (Morrison) assay; assay type: biochemical; settings: against bCPA
Method: as §1, §2

[3] = cited from earlier work
From the text: To date, a large number of CKMPs have been identified and isolated from natural sources (i.e., from arthropods, vertebrates, mollusks, fungi, plants, and so on). These molecules belong to more than 34 protein families and are involved in diverse biological functions. In animals, CKMPs are secreted peptides that function as extracellular signaling molecules involved in the regulation of important cellular functions such as cell growth or cell development. In plants, CKMPs are often involved in defense against external pathogens. Typically, the latter group functions as prote ...

bovine CPA [4] = experiment: Affinity chromatography on CPA-glyoxyl-agarose (binding to immobilized CPA), MALDI-TOF read-out; settings: heat-treated extract (100 °C, 60 min); 0.1 M Tris-HCl pH 7.2, 0.2 M NaCl
Method: (§3) A 50 mL aliquot of the clarified crude extract (with a protein concentration of (200 μg·mL^−1) was loaded onto a 2.0 mL bovine CPA-glyoxyl-agarose column prepared in house. The affinity resin was prepared in house as described. Before the addition of the crude extract, the affinity resin was previously equilibrated with 10 column volumes (cv) 0.1 M Tris-HCl buffer (pH 7.2) containing 0.2 M NaCl. Then, the column was washed with 5 cv of equilibration buffer. The retained proteins were eluted with two different buffers: (1) HCl solution with pH = 5.0 (2 cv) and (2) […] solution with pH = 3.0 (2 cv). The eluted fractions were adjusted immediately to pH 7.0 by adding NaOH. All the fractions that presented CPA inhibitory activity were pooled and stored at −80 °C until analysis.
(§4) For MALDI-TOF mass spectrometric analysis, samples from the different purification steps, as well as from the clarified crude extract were mixed with an equal volume of α-cyano-4-hydroxycinnamic acid (hcca) matrix solution. Previously, the samples were desalted by dialysis in 0.022 μm filters. The matrix-sample mixture was spotted onto MT 384 target plate polished steel T F from Bruker Daltonics, and the spots were evaporated to dryness at room temperature. […] The resultant tryptic peptides were dissolved in 10 μL of 0.1% CF3CO2H (v/v) an analyzed by MALDI-TOF in the presence of hcca matrix. […]

immobilized CPA [5] = experiment: C-terminal cleavage by immobilized CPA; design: species or system bovine; settings: affinity chromatography eluate, MALDI-TOF
Method: as §3, §4

bovine CPA [6] = experiment: CPA inhibitory activity after heat treatment (thermal stability); assay type: physicochemical; settings: crude extract, 100 °C for 60 min; Bradford and CPA inhibition
Method: The bCPA inhibitory activity of the crude extract and the heat-treated samples was determined similarly as described above for the determination of the IC50 values. However, in this case a unique concentration of the sample was tested. bCPA inhibitory activity (%) was calculated by using the following equation:(2) Y=(ΔAbs340nm/Δt(min))potato extract/(ΔAbs340nm/Δt(min))control×100
(§5) Aliquots with 1.0 mL of the clarified crude extract (see Section 3.2) where incubated at 60, 70, 85 or 100 °C for 60 min. After incubation the samples were centrifuged at 14,500× g for 90 min at 4 °C to eliminate all thermally denatured proteins. Afterwards, the total protein content and the inhibitory activity of the non-treated crude extract and heat-treated samples were determined.

[7] = MALDI-TOF MS of heat-treated samples (thermal stability); assay type: physicochemical; settings: crude extract heat-treated 60 min; MALDI-TOF linear positive mode
Method: as §5
For MALDI-TOF mass spectrometric analysis, samples from the different purification steps, as well as from the clarified crude extract were mixed with an equal volume of α-cyano-4-hydroxycinnamic acid (hcca) matrix solution. Previously, the samples were desalted by dialysis in 0.022 μm filters. The matrix-sample mixture was spotted onto MT 384 target plate polished steel T F from Bruker Daltonics, and the spots were evaporated to dryness at room temperature. Mass spectra were acquired on a Bruker Daltonics Ultraflextreme MALDI-TOF mass spectrometer (Bruker Daltonics, Billerica, MA, USA) operating in a linear positive mode. PMF analysis was performed for the identification of nchuPCI. In brief, an in situ tryptic digestion of the tris-tricine-SDS-PAGE electrophoresis bands as performed by following a well described protocol. The resultant tryptic peptides were dissolved in 10 μL of 0.1% CF3CO2H (v/v) an analyzed by MALDI-TOF in the presence of hcca matrix. […]

calcium channel = settings: cited from earlier work
immobilized CPA [8] = settings: after binding of the inhibitor to immobilized CPA; cited from earlier work
From the text: For further characterization, the initial heat-treated crude extract, the flow-through (fraction containing the non-retained peptides and proteins), and the elution from the affinity chromatography containing the final purified protein were subjected to MALDI-TOF mass spectrometry. A detailed analysis of the peaks present in the mass spectra for the initial heat-treat ...

[9] = ref 34 (Wang and co-workers, 2006); cited from earlier work
From the text: (§6) A number of CKMPs function as potent protease peptide inhibitors (PPIs). Among them, the potato carboxypeptidase inhibitor (PCI) was the first CKMPs to be discovered. […] The first crystal structure of this 39 amino acid plant protease inhibitor was reported in 1980 by Rees and Liscomb. After almost 40 years of intense research in the field of proteases, only a small number of metallocarboxypept ...

[10] = tested on: metallocarboxypeptidases (MCPs); settings: cited from earlier work
From the text: as §6

adenocarcinoma cell = settings: in vitro, acting as epidermal growth factor (EGF) antagonist; cited from earlier work
From the text: as §6

[11] = tested on: pancreatic carboxypeptidases A and B (CPA and CPB, respectively); settings: in vitro, by pancreatic carboxypeptidases A and B; cited from earlier work
From the text: as §6

[12] = molecular target: T1, Carboxypeptidase A from bovine pancreas (bovine, UniProt P00730 111-419); experiment: enzyme inhibition kinetics (Morrison equation for tight-binding inhibitors); 25 °C, equilibrium conditions ([E0]/Ki <= 10), fixed bCPA or pCPB, 0.1 mM N-(4-methoxyphenylazoformyl)-Phe-OH (bCPA) or -Arg-OH (pCPB), Tris-HCl pH 7.5, 0.2 M NaCl; pre-incubated 15 min at RT; absorbance at 340 nm; competitive inhibition assumed; settings: both partners purified
T1 construct: carboxypeptidase A from bovine pancreas; Free in solution for the Ki determinations; also called bCPA; bovine CPA; source: bought: Sigma-Aldrich (from bovine pancreas)
T1 sequence (looked up): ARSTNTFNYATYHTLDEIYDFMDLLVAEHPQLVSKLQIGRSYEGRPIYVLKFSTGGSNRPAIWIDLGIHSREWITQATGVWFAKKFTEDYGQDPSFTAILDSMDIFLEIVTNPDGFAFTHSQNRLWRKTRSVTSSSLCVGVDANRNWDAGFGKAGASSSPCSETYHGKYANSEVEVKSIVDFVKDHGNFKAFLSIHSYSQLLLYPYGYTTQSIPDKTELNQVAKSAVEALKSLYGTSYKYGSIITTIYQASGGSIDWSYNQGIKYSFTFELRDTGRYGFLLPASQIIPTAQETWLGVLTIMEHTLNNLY

[13] = molecular target: T2, Carboxypeptidase B from porcine pancreas (porcine, UniProt P09955 111-416); experiment: as above; settings: both partners purified
T2 construct: carboxypeptidase B from porcine pancreas; also called pCPB; porcine CPB; source: bought: Sigma-Aldrich (from porcine pancreas)
T2 sequence (looked up): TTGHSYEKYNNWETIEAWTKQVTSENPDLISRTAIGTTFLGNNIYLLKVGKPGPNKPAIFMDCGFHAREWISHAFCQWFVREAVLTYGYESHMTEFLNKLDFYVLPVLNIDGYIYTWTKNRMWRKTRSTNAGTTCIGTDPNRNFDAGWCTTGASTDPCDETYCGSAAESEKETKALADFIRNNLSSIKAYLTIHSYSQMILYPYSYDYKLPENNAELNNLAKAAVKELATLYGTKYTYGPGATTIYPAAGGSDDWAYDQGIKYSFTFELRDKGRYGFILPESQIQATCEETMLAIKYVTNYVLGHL

[14] = compared to recombinant PCI (rPCI)

QRDPDPICNKPCKTHDDCSGAWFCQACWNSARTCGPYVG (disulfide (positions not given here)) [rchuPCI, recombinant product of mature chuPCI (39 amino acids) expressed in E. coli BL21 (DE3)]
All Ki values determined (range in words) [1]: nanomolar range
Ki values obtained for rchuPCI compared with rPCI (fold higher) [1, 14]: about 2 fold
All Ki values determined (range in words) [2]: nanomolar range
Ki values obtained for rchuPCI compared with rPCI (fold higher) [2, 14]: about 2 fold

kalata B1: CKMP isolated from plants (GLPVCGETCVGGTCNTPGCTCSWPVCTRN; ends and bridges not checked; also: cystine-knot disulfides, pairing not given here; UniProt P56254 89-117, looked up)
Antibacterial and/or antifungal activities [3]: antibacterial and/or antifungal activities

-RDPDPICNKPCKTHDDCSGAWFCQACWNSARTCGPYVG (disulfide) [IIa, chuPCI lacking the N-terminal amino acid]
Retention by immobilized CPA (MALDI-TOF of flow-through vs initial extract) (bovine CPA [4]): clear fading of the molecular ion intensities
C-terminal cleavage by immobilized CPA (mass shift) (immobilized CPA [5]): loss of 57 Da

[pGlu]RDPDPICNKPCKTHDDCSGAWFCQACWNSARTCGPYVG (disulfide (positions not given here)) [native chuPCI, Churqueña]
Temperature stability of CPA inhibitory activity (bovine CPA [6]): high temperature stability, even after thermal treatment at 100 °C for 60 min
Heat resistance of the 4309 Da peak/miniprotein [7]: heat-resistant molecule

ω-conotoxin MVIIa
Calcium channel block (calcium channel): calcium channel blocker

[pGlu]RDPDPICNKPCKTHDDCSGAWFCQACWNSARTCGPYVG (disulfide (positions not given here)) [IIIa, full-length chuPCI post-translationally modified with an N-terminal pyroglutamic acid]
Retention by immobilized CPA (MALDI-TOF of flow-through vs initial extract) (bovine CPA [4]): clear fading of the molecular ion intensities
C-terminal cleavage by immobilized CPA (mass shift) (immobilized CPA [5]): loss of 57 Da

PCI: potato carboxypeptidase inhibitor, 39 amino acid plant protease inhibitor from Solanum tuberosum (QQHADPICNKPCKTHDDCSGAWFCQACWNSARTCGPYVG)
C-terminal cleavage by immobilized CPA (immobilized CPA [8]): a C-terminal glycine residue is usually cleaved by the immobilized CPA
Antithrombotic action [9]: can act as an antithrombotic drug
Inhibition of metallocarboxypeptidases [10]: inhibits different enzymes within the family of metallocarboxypeptidases
Inhibition of adenocarcinoma cell growth (adenocarcinoma cell): inhibit in vitro adenocarcinoma cell growth
Blocking of C-terminal cleavage (and consequent inactivation) of human EGF [11]: blocks the C-terminal cleavage

QQHADPICNKPCKTHDDCSGAWFCQACWNSARTCGPYVG (natural protein, Solanum tuberosum subsp. tuberosum, UniProt P01075 1-39, looked up, also called canonical PCI) [recombinant canonical potato carboxypeptidase inhibitor (PCI)]
Ki [12]: 4.3 ± 0.46 nM
Ki [13]: 10.7 ± 1.17 nM

B1: recombinant chuPCI (cystine-knot metallocarboxypeptidase inhibitor from Solanum tuberosum subsp. andigenum cv. Churqueña) (natural protein)
chain: QRDPDPICNKPCKTHDDCSGAWFCQACWNSARTCGPYVG
modifications: also: N-terminal Gln partly cyclised to pyroglutamate
notes: mature chuPCI (39 amino acids) of the chuPCI precursor, S. tuberosum subsp. andigenum cv; Churqueña; Cloned in pIN-III-OmpA3 with the OmpA3 signal peptide at the N-terminus for secretion; The mass of the purified protein (4326.3 Da) fits the 39 residues without the signal peptide; Three disulfide bonds (Cys8-Cys24, Cys12-Cys27, Cys18-Cys34); also called rchuPCI; recombinant churqueña PCI; source: …
Ki [12]: 10.8 ± 1.55 nM
Ki [13]: 19.8 ± 1.82 nM
